Results reported in patent US10941157B2, “Pesticidal compositions and uses thereof” (Gilead Apollo, LLC, priority 2015, dated 2021).
Converted amounts (≈) assume the structure as drawn. Like-named read-outs stand apart in the source and are kept apart here.

How the values were obtained:
Assay type in all cases: cell-based
Septoria tritici (St) = experiment: In vitro pathogen growth inhibition assay, St; settings: Zymoseptoria tritici, 48 h
Method in brief: (§1)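 Value reported is the compound concentration reaching ≥90% growth inhibition, from OD readings at 24 and 48 h after blank subtraction, confirmed visually. Inoculum was spores diluted in 17% V8 medium, except Rs, using 1.5 mm mycelial plugs in ¼ PDB; actual compound concentration corrected via OD600.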

[1] = system: Collectotrichum graminicola (Cg); experiment: In vitro pathogen growth inhibition assay, Cg; settings: 48 h
Method in brief: as §1

[2] = system: Fusarium virguliforme (Fv); experiment: In vitro pathogen growth inhibition assay, Fv
Method in brief: (§2)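 Spores of Dm, Fv and Pc were diluted in 17% V8 liquid medium; Rs used 1.5 mm mycelial plugs in ¼ PDB. Compounds from 2.5 mg/ml DMSO stocks were combined with inoculum, growth was read by OD600 at 24 and 48 h with blank subtraction, and the reported value is the concentration giving ≥90% inhibition.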

Botrtyis cinerea (Bc) = experiment: In vitro pathogen growth inhibition assay, Bc; settings: 48 h
Method in brief: as §1

Rhizoctonia solani (Rs) = experiment: In vitro pathogen growth inhibition assay, Rs (mycelial plugs); settings: Rhizoctonia solani, 48 h
Method in brief: as §2

[3] = system: Fusarium moniliforme (Fm); experiment: In vitro pathogen growth inhibition assay, Fm; settings: Fusarium verticillioides
Method in brief: as §1

[4] = system: Phytophthora capsici (Pc); experiment: In vitro pathogen growth inhibition assay, Pc; settings: 48 h
Method in brief: as §2

Diplodia maydis (Dm) = experiment: In vitro pathogen growth inhibition assay, Dm; settings: Stenocarpella maydis, 48 h
Method in brief: as §2

[5] = ≥90% inhibition, 48 hours vs 2% DMSO control, read-out: Compound Concentration (ppm) sufficient for ≥90% inhibition of growth, St
[6] = ≥90% inhibition, 48 hours vs 2% DMSO control, read-out: Compound Concentration (ppm) sufficient for ≥90% inhibition of growth, Cg
[7] = ≥90% inhibition, 48 hours vs 2% DMSO control, read-out: Compound Concentration (ppm) sufficient for ≥90% inhibition of growth, Fv
[8] = ≥90% inhibition, 48 hours vs 2% DMSO control, read-out: Compound Concentration (ppm) sufficient for ≥90% inhibition of growth, Bc
[9] = ≥90% inhibition, mycelial plugs, 48 hours vs 2% DMSO control, read-out: Compound Concentration (ppm) sufficient for ≥90% inhibition of growth, Rs
[10] = ≥90% inhibition, 48 hours vs 2% DMSO control, read-out: Compound Concentration (ppm) sufficient for ≥90% inhibition of growth, Fm
[11] = ≥90% inhibition, 48 hours vs 2% DMSO control, read-out: Compound Concentration (ppm) sufficient for ≥90% inhibition of growth, Pc
[12] = ≥90% inhibition, 48 hours vs 2% DMSO control, read-out: Compound Concentration (ppm) sufficient for ≥90% inhibition of growth, Dm
[13] = ≥90% growth inhibition, 48 hours, vs 2% DMSO control, read-out: Compound Concentration (ppm) sufficient for ≥90% inhibition of St
[14] = ≥90% growth inhibition, 48 hours, vs 2% DMSO control, read-out: Compound Concentration (ppm) sufficient for ≥90% inhibition of Cg
[15] = ≥90% growth inhibition, 48 hours, vs 2% DMSO control, read-out: Compound Concentration (ppm) sufficient for ≥90% inhibition of Fv
[16] = ≥90% growth inhibition, 48 hours, vs 2% DMSO control, read-out: Compound Concentration (ppm) sufficient for ≥90% inhibition of Bc
[17] = ≥90% growth inhibition, mycelial plugs, 48 hours, vs 2% DMSO control, read-out: Compound Concentration (ppm) sufficient for ≥90% inhibition of Rs
[18] = ≥90% growth inhibition, 48 hours, vs 2% DMSO control, read-out: Compound Concentration (ppm) sufficient for ≥90% inhibition of Fm
[19] = ≥90% growth inhibition, 48 hours, vs 2% DMSO control, read-out: Compound Concentration (ppm) sufficient for ≥90% inhibition of Pc
[20] = ≥90% growth inhibition, 48 hours, vs 2% DMSO control, read-out: Compound Concentration (ppm) sufficient for ≥90% inhibition of Dm

Row | SMILES | IC90 (Septoria tritici (St); [5]) [µg/mL] | IC90 [1, 6] [µg/mL] | IC90 [2, 7] [µg/mL] | IC90 (Botrtyis cinerea (Bc); [8]) [µg/mL] | IC90 (Rhizoctonia solani (Rs); [9]) [µg/mL] | IC90 [3, 10] [µg/mL] | IC90 [4, 11] [µg/mL] | IC90 (Diplodia maydis (Dm); [12]) [µg/mL] | other results
1 | COc1ccc(F)cc1[C@H](Cn1c(=O)n(C(C)(C)C(=O)NC(C)C)c(=O)c2c(C)c(-c3ncco3)sc21)OC1CCOCC1 [Compound I-015] | > 10 | 2 (≈ 3.18 µM) | 0.4 (≈ 0.636 µM) | 0.4 (≈ 0.636 µM) | 10 (≈ 15.9 µM) | 0.08 (≈ 0.127 µM) | > 50 | ≥ 0.4 | –
2 | COc1ccc(F)cc1[C@H](Cn1c(=O)n(C(C)(C)C(=O)N2CCCC2)c(=O)c2c(C)c(-n3cccn3)sc21)O[C@H]1CC[C@@H](O)CC1 [Compound I-123] | > 50 | ≥ 10 | 2 (≈ 3.06 µM) | 2 (≈ 3.06 µM) | 10 (≈ 15.3 µM) | 0.4 (≈ 0.612 µM) | > 50 | 10 (≈ 15.3 µM) | –
3 | COc1ccc(F)cc1[C@H](Cn1c(=O)n(C(C)(C)C(=O)N2CCCC2)c(=O)c2c(C)c(-n3cccn3)sc21)OC[C@H](C)O [Compound I-161] | > 50 | 10 (≈ 16.3 µM) | 10 (≈ 16.3 µM) | 10 (≈ 16.3 µM) | ≥ 2 | 2 (≈ 3.26 µM) | > 50 | 50 (≈ 81.5 µM) | –
4 | COc1ccccc1[C@H](Cn1c(=O)n(C(C)(C)C(=O)NC(C)C)c(=O)c2c(C)c(-n3nccn3)sc21)OC1CCOCC1 [Compound I-029] | > 10 | ≥ 2 | 0.4 (≈ 0.655 µM) | 0.4 (≈ 0.655 µM) | 0.4 (≈ 0.655 µM) | 0.08 (≈ 0.131 µM) | 50 (≈ 81.9 µM) | ≥ 2 | –
5 | CCOC(=O)c1sc2c(c1C)c(=O)n(C(C)(C)C(N)=O)c(=O)n2C[C@H](OCCO)c1cc(F)ccc1OC [Compound I-183] | – | – | – | – | – | – | – | – | IC90 (Septoria tritici (St); [13]): > 50 µg/mL; IC90 [1, 14]: > 50 µg/mL; IC90 [2, 15]: 50 µg/mL (≈ 90.6 µM); IC90 (Botrtyis cinerea (Bc); [16]): 10 µg/mL (≈ 18.1 µM); IC90 (Rhizoctonia solani (Rs); [17]): 2 µg/mL (≈ 3.63 µM); IC90 [3, 18]: 2 µg/mL (≈ 3.63 µM); IC90 [4, 19]: > 50 µg/mL; IC90 (Diplodia maydis (Dm); [20]): > 50 µg/mL
6 | COc1ccc(F)cc1[C@H](Cn1c(=O)n(C(C)(C)C(=O)NC(C)C)c(=O)c2c(C)c(-n3nccn3)sc21)OCCC(N)=O [Compound I-142] | > 50 | 10 (≈ 16.2 µM) | 0.4 (≈ 0.65 µM) | 2 (≈ 3.25 µM) | 2 (≈ 3.25 µM) | 0.4 (≈ 0.65 µM) | ≥ 50 | 50 (≈ 81.2 µM) | –
7 | COc1ccc(F)cc1[C@H](Cn1c(=O)n(C(C)(C)C(=O)N2CCCC2)c(=O)c2c(C)c(-n3cccn3)sc21)OCCC#N [Compound I-203] | – | – | – | – | – | – | – | – | IC90 (Septoria tritici (St); concentration sufficient to ≥90% inhibition of growth, 48 hours vs 2% DMSO control, read-out: Compound Concentration (ppm) for ≥90% inhibition, St): > 50 µg/mL; IC90 ([1]; concentration sufficient to ≥90% inhibition of growth, 48 hours vs 2% DMSO control, read-out: Compound Concentration (ppm) for ≥90% inhibition, Cg): 50 µg/mL (≈ 82.1 µM); IC90 ([2]; concentration sufficient to ≥90% inhibition of growth, 48 hours vs 2% DMSO control, read-out: Compound Concentration (ppm) for ≥90% inhibition, Fv): 50 µg/mL (≈ 82.1 µM); IC90 (Botrtyis cinerea (Bc); concentration sufficient to ≥90% inhibition of growth, 48 hours vs 2% DMSO control, read-out: Compound Concentration (ppm) for ≥90% inhibition, Bc): 50 µg/mL (≈ 82.1 µM); IC90 (Rhizoctonia solani (Rs); concentration sufficient to ≥90% inhibition of growth, 48 hours vs 2% DMSO control, read-out: Compound Concentration (ppm) for ≥90% inhibition, Rs): 10 µg/mL (≈ 16.4 µM); IC90 ([3]; concentration sufficient to ≥90% inhibition of growth, 48 hours vs 2% DMSO control, read-out: Compound Concentration (ppm) for ≥90% inhibition, Fm): 10 µg/mL (≈ 16.4 µM); IC90 ([4]; concentration sufficient to ≥90% inhibition of growth, 48 hours vs 2% DMSO control, read-out: Compound Concentration (ppm) for ≥90% inhibition, Pc): > 50 µg/mL; IC90 (Diplodia maydis (Dm); concentration sufficient to ≥90% inhibition of growth, 48 hours vs 2% DMSO control, read-out: Compound Concentration (ppm) for ≥90% inhibition, Dm): 50 µg/mL (≈ 82.1 µM)
8 | COc1ccc(F)cc1[C@H](Cn1c(=O)n(C(C)(C)C(=O)NC(C)C)c(=O)c2c(C)c(CO)sc21)OCCC#N [Compound I-325] | – | – | – | – | – | – | – | – | IC90 (Septoria tritici (St); [13]): > 50 µg/mL; IC90 [1, 14]: > 50 µg/mL; IC90 [2, 15]: 50 µg/mL (≈ 89.2 µM); IC90 (Botrtyis cinerea (Bc); [16]): 50 µg/mL (≈ 89.2 µM); IC90 (Rhizoctonia solani (Rs); [17]): > 50 µg/mL; IC90 [3, 18]: 2 µg/mL (≈ 3.57 µM); IC90 [4, 19]: > 50 µg/mL; IC90 (Diplodia maydis (Dm); [20]): > 50 µg/mL
9 | COc1ccccc1[C@H](Cn1c(=O)n(C(C)(C)C(=O)NC(C)C)c(=O)c2c(C)c(-n3cccn3)sc21)OC(C)C [Compound I-118] | ≥ 50 | 10 (≈ 17.6 µM) | 0.4 (≈ 0.705 µM) | 2 (≈ 3.52 µM) | 50 (≈ 88.1 µM) | 0.4 (≈ 0.705 µM) | > 50 | 2 (≈ 3.52 µM) | –
10 | Cc1c(-n2nccn2)sc2c1c(=O)n(C(C)(C)C(=O)NC(C)C)c(=O)n2C[C@H](OC(C)C)c1cc(F)ccc1OCCO [Compound I-071] | ≥ 50 | 0.4 (≈ 0.649 µM) | 0.4 (≈ 0.649 µM) | 0.4 (≈ 0.649 µM) | ≥ 0.08 | 0.08 (≈ 0.13 µM) | ≥ 50 | 0.4 (≈ 0.649 µM) | –
